Reference: US9180183B2, “Phospholipid drug analogs” (Telormedix SA, priority 2010, dated 2015)

What was measured:
[1] = Solubility in organic solvents; format: physicochemical; details: methanol, ethanol, dichloromethane, ethyl acetate, acetonitrile, acetone, chloroform
[2] = HPLC retest of stored compound A samples; format: physicochemical; details: for HPLC purity: room temperature, natural light
Procedure: (§2) At this point, a stability study was conducted on batch CH730/16/8g. The following conditions of storage were tested: • solid at room temperature (about 25° C.) and in presence of light • solid at external temperature (28-35° C.) under the sun-light • solid at +4° C. • solution in chloroform at room temperature and in presence of light • solution in chloroform at +4° C. • solution in chloroform at external temperature (28-35° C.) under the sun-light

[3] = Stability study of compound A under storage conditions (HPLC); format: physicochemical
Procedure: as §2

[4] = Plasma stability in rat plasma (first experiment); format: in vitro ADME
Procedure: (§1) A 10 μl of MeOH was added to improve solubility. […] The supernatant fractions were analyzed by LC/MS/MS. […] Percent loss of substrate in incubations was determined to estimate the in vitro half life of the test compound. Samples were analyzed on a UPLC (Waters) interfaced with a Premiere XE Triple Quadrupole (Waters).

[5] = Plasma stability in rabbit plasma (first experiment); format: in vitro ADME
Procedure: as §1

[6] = Plasma stability in minipig plasma (first experiment); format: in vitro ADME
Procedure: as §1

[7] = Plasma stability in human plasma (first experiment); format: in vitro ADME
Procedure: as §1

[8] = system: human whole blood; assay: Cytokine secretion in human whole blood assay (ELISA); format: cell-based; details: for IL-12p40 levels: all donors
Procedure: Before drawing the blood, the compounds were added to 96 well round bottom plates in a 10× diluted sample at 20 ul. The compounds were diluted in RPMI media without serum but with antibiotics. Antibiotics were added at a 10× concentration. After drawing the blood, the whole blood sample was gently mixed to obtain a homogeneous sample, and 180 ul was added to each well.
All compounds were setup in concentrations at 0-0.01-0.03-0.1-0.5-2.0-10.0 micromolar as the final concentration. Vehicle control was DMSO control, where we used the highest concentration used for the compounds. After addition of blood, all plates were gently agitated at 37° C. and 5% CO2 until harvest.
Concentrations of cytokines were determined by ELISA from R&D Systems. The results were analyzed in Graph Pad Prism in order to prepare dose-response curves, and for determination of EC50 values. FACS analysis was made by using Becton-Dickinson FACSDiva software and subsequently illustrated in Graph Pad Prism.

[9] = system: recombinant protein antigens from Plasmodium falciparum and Mycobacterium ulcerans; assay: Pilot immunization study with adjuvanted protein antigens in mice; format: in vivo; details: three s.c. immunizations with 10 nMol adjuvant
Procedure: A pilot immunization study was conducted using Compound A and SC12 adjuvanted protein antigens. The immunization experiments were performed with two recombinant proteins expressed in E. coli. One antigen was derived from the malaria parasite Plasmodium falciparum and the other one from Mycobacterium ulcerans, which cause the ulcerative skin disease Buruli ulcer.

[10] = system: PBMCs; assay: IL-6 and TNF-alpha secretion in PBMCs (ELISA), Model 2; format: cell-based, human; details: three donors
[11] = system: human PBMCs; assay: IL-6 secretion in human PBMCs, two batches of Compound A and SC12; format: cell-based; details: PBMCs; 10-1-0,1-0.01 micromolar
Procedure: PBMCs were purified from two donors and plated into 96 well plates at 2×10^5 cells/well in RPMI media including human 2% heat inactivated AB serum, glutamine, Pen-strep and R-mercapto-ethanol. […] The conditioned media was removed for ELISA analyses for IL-6, and the EC50 value determined for each compound and each batch.
All compounds were tested in four concentrations (10-1-0, 1-0.01 micromolar).
Concentrations of IL-6 were determined by ELISA from R&D Systems using the Microsoft Excel software. The results were analyzed in Graph Pad Prism in order to prepare dose-response curves, and for determination of EC50 values.

[12] = system: HLA-DR+/CD20+ B cells; assay: FACS analysis of B cell activation in whole blood; format: cell-based, human; details: 24 hours; 2 and 10 uM; three donors
Procedure: The FACS staining was performed according to the manufacturer's instructions. Lysis of red blood cells was performed before FACS staining in order to minimize auto-florescence. To include as many B cells and DCs in the study as possible the FACS analyses were performed on 500,000 cells in total for each staining. […] The results of the individual analysis were present as Mean Fluorescence Intensity
The analysis of expression of the activation marker CD40 on B cells was made on double positive HLA-DR (MHC class II) (P4 gate) and CD20 cells (B cell marker) (P8 gate).

[13] = system: HLA-DR+/CD11c+/CD123- mDCs; assay: FACS analysis of myeloid DC activation in whole blood; format: cell-based, human; details: 24 hours; 0.1 and 0.5 uM; three donors
Procedure: The FACS analysis for donor 1 and donor 2 was made on another day than donor 3. The compound concentrations were as follows:
The FACS analysis was used to identify whether the test compounds could induce activation of B cells, and two different subsets of dendritic cells, namely the myeloid CD11c+/CD123− DCs and the plasmacytoid CD11c−/CD123+ DCs. The following markers were studied to identify the activation status of the different subsets:
The FACS staining was performed according to the manufacturer's instructions. Lysis of red blood cells was performed before FACS staining in order to minimize auto-florescence. To include as many B cells and DCs in the study as possible the FACS analyses were performed on 500,000 cells in total for each staining. A P1 gate was set only to include relevant cells on FSC vs. SSC (see FIGS. 12-15). The results of the individual analysis were present as Mean Fluorescence Intensity
The analysis of myeloid DCs was based on HLA-DR+/CD11c+/CD123−cells, thus all analyzed cells was included in the HLA-DR+ (P3) gate and CD11c+/CD123− (Q4) gate (see gates in FIGS. 13-15).

[14] = system: 73 primary molecular targets (human recombinant receptor types and subtypes or membrane fraction from rodent tissue homogenates); assay: Radioligand binding assay among 73 primary molecular targets; details: SC12 at 30 microM
[15] = system: Cutaneous Squamous Cell Carcinoma (SCC) cell lines SCL-I, SCL-II, SCC-12, SCC-13; assay: Proapoptotic and cytotoxic effects on cutaneous SCC cell lines (real-time cell analysis, microscopy); format: cell-based, human; details: cutaneous SCC cell lines
Procedure: SCC cells are grown under standard conditions (10% FBS).
Time and dose dependency of effects on total cell numbers have been investigated by real-time cell analysis, which is based on continuous monitoring of electric conductance in microtiter wells (E-plates, Roche), which corresponds to the cell numbers. […] For these assays 4 cell lines should be used to obtain a representative overview on the effects on SCC cells.

[16] = Serum exposure after intravesical chronic treatment in mouse
Procedure: Serum samples were taken at time points: day 0, 2 hours, day 1, 24 hours, and day 6, 2 hours.
Samples were evaporated and re-suspended in 70 microliters of acetonitrile/methanol 1:1.

[17] = system: AY-27 rat bladder cancer cell-line
[18] = published data, Clarke et al. 2009; cited from earlier work
[19] = batch CH730/16/8G, solid, external T and light, t = 2 days
[20] = batch CH730/16/8G, solid, external T and light, t = 6 days
[21] = batch CH730/16/8G, solution in CHCl3, RT and light, t = 0
[22] = batch CH730/16/8G, solution in CHCl3, RT and light, t = 1 day
[23] = batch CH730/16/8G, solution in CHCl3, RT and light, t = 5 days
[24] = batch CH730/16/8G, solution in CHCl3, RT and light, t = 7 days
[25] = batch CH730/16/8G, solution in CHCl3, RT and light, t = 11 days
[26] = batch CH730/16/8G, solution in CHCl3, T about 30° C. without light, t = 1 day
[27] = batch CH730/16/8G, solution in CHCl3, external T and light, t = 1 day
[28] = whole blood, 6 hours incubation
[29] = whole blood, 24 hours incubation

Q: With COCCOc1nc(N)c2[nH]c(=O)n(Cc3ccc(C(=O)O)cc3)c2n1 [Acid 7, 4-((6-amino-2-(2-methoxyethoxy)-8-oxo-7H-purin-9(8H)-yl)methyl)benzoic acid] as the molecule, how does the “solubility in common solvents” value [1] read?
A: not soluble

Q: For CCCCCCCC/C=C\CCCCCCCC(=O)OCC(COP(=O)(O)OCCNC(=O)c1ccc(Cn2c(=O)[nH]c3c(N)nc(OCCOC)nc32)cc1)OC(=O)CCCCCCC/C=C\CCCCCCCC (stereo not shown) [Compound A, 2-(4-((6-amino-2-(2-methoxyethoxy)-8-oxo-7H-purin-9(8H)-yl)methyl)benzamido)ethyl 2,3-bis(oleoyloxy)propyl phosphate], which “stability (in words)” value ([2]; at room temperature and/or in the presence of light) is on record?
A: not a stable compound

Q: And the HPLC purity ([2]; Test date: Jun. 10, 2009)?
A: Purity: 57.5%

Q: And the HPLC purity ([2]; Test date: Jun. 11, 2009)?
A: Purity: 81.4%

Q: And the HPLC purity ([2]; Test date: May 20, 2009)?
A: Purity: 89.6%

Q: And the HPLC purity ([2]; tested Jun. 10, 2009, Retest date: Jun. 16, 2009)?
A: Purity: 44.8%

Q: And the HPLC purity ([2]; tested Jun. 11, 2009, Retest date: Jun. 18, 2009)?
A: Purity: 71.5%

Q: What about the HPLC purity ([2]; tested May 20, 2009, Retest date: Jun. 12, 2009) of the same molecule?
A: Purity: 67.2%

Q: And the HPLC purity ([2]; tested May 20, 2009, Retest date: Jun. 17, 2009)?
A: Purity: 58.9%

Q: What about the “degradation (in words)” value ([3]; T>25° C. and in the presence of light) of the same molecule?
A: rapid degradation

Q: And the “HPLC % at RRT = 1 (main peak)” value [3, 19]?
A: 37.6%

Q: What about the “HPLC % of impurity at RRT = 1.06” value [3, 19] of the same molecule?
A: 9.2%

Q: And the “HPLC % of impurity at RRT = 1.11” value [3, 19]?
A: 27.9%

Q: And the “HPLC % of impurity at RRT = 1.26” value [3, 19]?
A: 14.8%

Q: What about the “HPLC % at RRT = 1 (main peak)” value [3, 20] of the same molecule?
A: 35.4%

Q: And the “HPLC % of impurity at RRT = 1.06” value [3, 20]?
A: 17.8%

Q: And the “HPLC % of impurity at RRT = 1.14” value [3, 20]?
A: 7.2%

Q: And the “HPLC % of impurity at RRT = 1.17” value [3, 20]?
A: 12.6%

Q: What about the “HPLC % of impurity at RRT = 1.28” value [3, 20] of the same molecule?
A: 5.5%

Q: What about the “HPLC % at RRT = 1 (main peak)” value [3, 21] of the same molecule?
A: 81.4%

Q: What about the “HPLC % of impurity at RRT = 1.11” value [3, 21] of the same molecule?
A: 8.6%

Q: And the “HPLC % of impurity at RRT = 1.23” value [3, 21]?
A: 4.2%

Q: And the “HPLC % at RRT = 1 (main peak)” value [3, 22]?
A: 80.9%

Q: And the “HPLC % of impurity at RRT = 1.11” value [3, 22]?
A: 8.7%

Q: What about the “HPLC % of impurity at RRT = 1.24” value [3, 22] of the same molecule?
A: 4.4%

Q: And the “HPLC % at RRT = 1 (main peak)” value [3, 23]?
A: 79.3%

Q: And the “HPLC % of impurity at RRT = 1.10” value [3, 23]?
A: 9.9%

Q: And the “HPLC % of impurity at RRT = 1.24” value [3, 23]?
A: 4.2%

Q: And the “HPLC % at RRT = 1 (main peak)” value [3, 24]?
A: 80.5%

Q: What about the “HPLC % of impurity at RRT = 1.11” value [3, 24] of the same molecule?
A: 8.7%

Q: What about the “HPLC % of impurity at RRT = 1.27” value [3, 24] of the same molecule?
A: 3.9%

Q: What about the “HPLC % at RRT = 1 (main peak)” value [3, 25] of the same molecule?
A: 82.0%

Q: And the “HPLC % of impurity at RRT = 1.16” value [3, 25]?
A: 6.9%

Q: And the “HPLC % of impurity at RRT = 1.29” value [3, 25]?
A: 3.7%

Q: And the “HPLC % at RRT = 1 (main peak)” value [3, 26]?
A: 80.7%

Q: What about the “HPLC % of impurity at RRT = 1.11” value [3, 26] of the same molecule?
A: 8.6%

Q: And the “HPLC % of impurity at RRT = 1.27” value [3, 26]?
A: 3.8%

Q: And the “HPLC % at RRT = 1 (main peak)” value [3, 27]?
A: 80.3%

Q: And the “HPLC % of impurity at RRT = 1.11” value [3, 27]?
A: 8.0%

Q: What about the “HPLC % of impurity at RRT = 1.27” value [3, 27] of the same molecule?
A: 3.2%

Q: What about the stability classification [4] of the same molecule?
A: unstable

Q: What about the stability classification [5] of the same molecule?
A: unstable

Q: What about the stability classification [6] of the same molecule?
A: unstable

Q: And the stability classification [7]?
A: unstable

Q: And the “range of IL-6 secretion” value ([8]; whole blood, three donors)?
A: 4000 to 8000 pg/mL

Q: What about the “ranges of IFN-alpha secreted” value ([8]; whole blood, three donors) of the same molecule?
A: 1000 to 2000 pg/mL

Q: What about the IL-12p40 levels [8, 28] of the same molecule?
A: 8.000 to 12.000 pg/mL

Q: What about the IL-12p40 levels [8, 29] of the same molecule?
A: 20.000 to 25.000 pg/mL

Q: And the local side effects [9]?
A: No local side effects

Q: Which results are given for CC(C)Cn1cnc2c(N)nc3ccccc3c21 [Imiquimod, reference compound]?
A: induction of IL-6 and TNF-alpha secretion (in words) [10]: weak ability to induce the cytokines; IL-6 induction (in words) [11]: only active in inducing IL-6 at the highest concentration; induction of DC secreted cytokines (in words) ([8]; supernatant from whole blood cell assays): weak inducer; IL-6 secretion (in words) ([8]; whole blood, 6 h incubation): low and insignificant amounts of IL-6; IFN-alpha secretion (in words) [8, 28]: did not induce IFN-alpha secretion; IL-10 production (in words) [8, 28]: no IL-10 production was seen; IL-12p40 secretion (in words) [8, 28]: did not induce IL-12p40 secretion; IL-12p40 secretion (in words) [8, 29]: did not induce IL-12p40; CD40 expression (MFI, in words) [12]: increased expression in all three donors; CD80 expression in mDCs (MFI, in words) [13]: weak expression of CD80 in donor 1 and 2; binding to receptors associated with pain-related syndromes (e.g. adenosine and sodium channel) [14]: shown to bind; cell numbers (real-time cell analysis, electric conductance) [15]: reduced cell numbers; Imiquimod levels in serum, Mean ± S.D. ([16]; intravesical 0.1%, Day 1, 24 hours, LLOQ 2.5 ng/ml): <LLOQ; accumulation in serum (in words) ([16]; intravesical chronic treatment, 6 days): no accumulation; Range of weight of the rat bladders ([17]; 0.5 ml intravesical instillation (Imiquimod 0.1%, SC12 0.38%) on day 2 and 5, day 12): 0.0814-0.1891 grams; signs of toxicity (in words) ([17]; intravesical instillation on day 2 and 5): No signs of toxicity; Tumor free (% of rats) ([17]; of 14 rats per group, day 12): 35.7%; Tumor free (number of rats) ([17]; of 14 rats per group, day 12): 5; pT2 Tumor (% of rats) ([17]; of 14 rats per group, day 12): 64.3%; pT2 Tumor (number of rats) ([17]; of 14 rats per group, day 12): 9

Q: With CCOCc1nc2c(N)nc3ccccc3c2n1CC(C)(C)O [Resiquimod] as the molecule, how does the IFN-alpha secreted [18] read?
A: < 200 pg/mL
